Source: patent publication US20100331368A1, “2,5-DIARYL SELENOPHENE COMPOUNDS, AZA 2,5-DIARYL THIOPHENE COMPOUNDS, AND THEIR PRODRUGS AS ANTIPROTOZOAL AGENTS” (priority 2007, published 2010)
Where a name gives a salt, the structure may show the parent alone. Read-outs that look alike come from different tables or passages of the source.

Key:
[1] = system: STIB 900 strain of Trypanosoma brucei rhodesiense; test: In vivo activity against T. b. r. STIB 900 in a mouse model; settings: for responders at 20 mg/kg / responders at 25 mg/kg / responders at 5 mg/kg: Trypanosoma brucei, 1440 h, read-out: Cures (number of mice that survive and are parasite free for 60 days); for Survival (average days of survival) / Cures (number of mice that survive and are parasite free for 60 days): mouse, days 3-6 post-infection; for Survival (average days of survival): untreated controls expire between 7 and 8 days; for Cures (number of mice that survive and are parasite free for 60 days): groups of four mice
Procedure: The activities of compounds 4, 5, 6, 11, 12, 18, 20, 22, 27, 28, 30 and 33 against the STIB 900 strain of Trypanosoma brucei rhodesiense (T. b. r.) in a mouse model are shown in Table 2. […] Groups of four mice were infected intraperitoneally with 2×10^5 bloodstream forms of T. b. r. STIB 900 which originates from a patient in Tanzania. On days 3, 4, 5, and 6 post-infection the experimental groups were treated with the drugs either by the intraperitoneal or for prodrugs by the oral route. Usually the highest tolerated dose was used which was determined in a pretoxicological experiment. Parasitemia of the mice was checked daily up to day 14 post-infection and thereafter 2 times per week up to day 60. One group of mice was not treated and acted as control. For relapsing mice, the day of death was recorded and the survival time determined.

[2] = system: Plasmodium falciparum (P. f.); test: In vitro antiprotozoal activity against Plasmodium falciparum; format: cell-based
Procedure: (§1) In vitro antiprotozoal activities were measured following established protocols. […] E., et al., Bioorg.

L-6 rat mycoblast cells [3] = test: Cell toxicity assay in L-6 cells
[4] = system: Trypanosoma brucei rhodesiense (T. b. r.); test: In vitro antiprotozoal activity against Trypanosoma brucei rhodesiense; format: cell-based
Procedure: as §1

[5] = system: Leishmania donovani (L. d.); test: In vitro assay against Leishmania donovani; format: cell-based
Procedure: as §1

L-6 rat mycoblast cells [6] = system: L-6 rat mycoblast cells
[7] = Plasmodium falciparum, in vitro, read-out: IC50 values versus P.f.
[8] = Plasmodium falciparum, in vitro, read-out: P.f. IC50
[9] = Trypanosoma brucei, RHODESIENSE, in vitro, read-out: IC50 values versus T.b.r.
[10] = Trypanosoma brucei, RHODESIENSE, in vitro, read-out: T.b.r. IC50
[11] = Leishmania donovani, in vitro, read-out: IC50 values versus L.d.
[12] = Leishmania donovani, in vitro, read-out: L.d. C50
[13] = in vitro, read-out: T.b.r. IC50

Cl.Cl.N=C(N)c1ccc(-c2ccc(-c3ccc(C(=N)N)cc3)[se]2)cc1 [Compound 4, 2,5-Bis(4-amidinophenyl)selenophene Dihydrochloride]
responders at 20 mg/kg ([1]; ip): 50% | Survival (average days of survival) ([1]; ip, 20 mg/kg): 55.5 days | IC50 ([2]; Plasmodium falciparum, read-out: IC50 values versus P.f.): ≤ 14 nM | IC50 ([2]; Plasmodium falciparum, read-out: P.f. IC50): 2 nM | Cytotoxocity (L-6 rat mycoblast cells [3]): 9.7 µM | IC50 ([4]; Trypanosoma brucei, RHODESIENSE, read-out: IC50 values versus T.b.r.): ≤ 26 nM | IC50 ([4]; Trypanosoma brucei, RHODESIENSE, read-out: T.b.r. IC50): 2 nM | IC50 ([5]; Leishmania donovani, read-out: IC50 values versus L.d.): < 200 nM | IC50 ([5]; Leishmania donovani, read-out: L.d. C50): 170 nM

Cl.Cl.N=C(NO)c1ccc(-c2ccc(-c3ccc(C(=N)NO)cc3)[se]2)cc1 [Compound 5, 2,5-Bis[4-(N-hydroxyamidino)phenyl]selenophene Dihydrochloride]
responders at 25 mg/kg ([1]; po): 0% | Survival (average days of survival) ([1]; po, 25 mg/kg): 11.5 days

CONC(=N)c1ccc(-c2ccc(-c3ccc(C(=N)NOC)cc3)[se]2)cc1.Cl.Cl [Compound 6, 2,5-Bis[4-(N-methoxyamidino)phenyl]selenophene Dihydrochloride]
responders at 25 mg/kg ([1]; po): 0% | Survival (average days of survival) ([1]; po, 25 mg/kg): 15.25 days

N=C(N)c1ccc(-c2ccc(-c3ccc(C(=N)N)cn3)[se]2)cc1 [Compound 11, 6-[5-(4-Amidinophenyl)-selenophen-2-yl]-nicotinamidine]
responders at 5 mg/kg ([1]; ip): 100% | Survival (average days of survival) ([1]; ip, 5 mg/kg): 60 days | IC50 [2, 7]: ≤ 14 nM | IC50 [2, 8]: 10 nM | Cytotoxocity (L-6 rat mycoblast cells [3]): 27.7 µM | IC50 [4, 9]: ≤ 26 nM | IC50 [4, 10]: 9 nM | IC50 [5, 11]: 1600 nM | IC50 [5, 12]: 1600 nM

N/C(=N\O)c1ccc(-c2ccc(-c3ccc(/C(N)=N/O)cn3)[se]2)cc1 [Compound 12]
responders at 25 mg/kg ([1]; po): 0% | Survival (average days of survival) ([1]; po, 25 mg/kg): 26 days

N=C(N)c1ccc(-c2ccc(-c3ccc(C(=N)N)nc3)[se]2)cc1 [Compound 18, 5-[5-(4-Amidinophenyl)-selenophen-2-yl]-pyridine-2-amidine]
responders at 5 mg/kg ([1]; ip): 100% | Survival (average days of survival) ([1]; ip, 5 mg/kg): 60 days | IC50 [2, 7]: ≤ 14 nM | IC50 [2, 8]: 14 nM | Cytotoxocity (L-6 rat mycoblast cells [3]): 13.4 µM | IC50 [4, 9]: ≤ 26 nM | IC50 [4, 10]: 26 nM | IC50 [5, 11]: < 200 nM | IC50 [5, 12]: 130 nM

CO/N=C(\N)c1ccc(-c2ccc(-c3ccc(/C(N)=N/OC)nc3)[se]2)cc1 [Compound 20, 5-{5-[4-(N-Methoxyamidino)-phenyl]-selenophen-2-yl}-pyridine-2-N-methoxyamidine]
responders at 25 mg/kg ([1]; po): 25% | Survival (average days of survival) ([1]; po, 25 mg/kg): 36.5 days

N=C(N)c1ccc(-c2ccc(-c3ccc(C(=N)N)nc3)[se]2)cn1 [Compound 22, 2,5-Bis-[5-(2-amidino-pyridyl)]selenophene dihydrochloride]
responders at 5 mg/kg ([1]; ip): 100% | Survival (average days of survival) ([1]; ip, 5 mg/kg): 60 days | IC50 [2, 7]: ≤ 14 nM | IC50 [2, 8]: 4 nM | Cytotoxocity (L-6 rat mycoblast cells [3]): 5.6 µM | IC50 [4, 9]: ≤ 26 nM | IC50 [4, 10]: 2 nM | IC50 [5, 11]: < 200 nM | IC50 [5, 12]: 53 nM

N=C(N)c1ccc(-c2ccc(-c3ccc(C(=N)N)cn3)[se]2)nc1 [Compound 27, 2,5-Bis-[2-(5-amidino-pyridyl)]selenophene dihydrochloride]
responders at 5 mg/kg ([1]; ip): 100% | Survival (average days of survival) ([1]; ip, 5 mg/kg): 60 days | IC50 [2, 7]: ≤ 14 nM | IC50 [2, 8]: 10 nM | Cytotoxocity (L-6 rat mycoblast cells [3]): 158.3 µM | IC50 [4, 10]: 50 nM | IC50 [5, 12]: 5600 nM

NC(=NO)c1ccc(-c2ccc(-c3ccc(C(N)=NO)cn3)[se]2)nc1 [Compound 28, 2,5-Bis-[2-{5-(N-hydroxyamidino)-pyridyl}]selenophene dihydrochloride]
responders at 25 mg/kg ([1]; po): 0% | Survival (average days of survival) ([1]; po, 25 mg/kg): 20 days

Cl.Cl.N=C(N)c1ccc(-c2ccc(-c3ccc(C(=N)N)cn3)s2)nc1 [Compound 30, 2,5-Bis-[2-(5-amidino-pyridyl)]thiophene dihydrochloride]
Cures (number of mice that survive and are parasite free for 60 days) ([1]; ip, 5 mg/kg): 1/4 | Survival (average days of survival) ([1]; ip, 5 mg/kg): 50.25 days | Cytotoxocity (L-6 rat mycoblast cells [6]): >222 µM | IC50 ([2]; in vitro, read-out: P.f. IC50): 18 nM | IC50 [4, 13]: 68 nM | IC50 ([5]; in vitro, read-out: L.d. C50): 23300 nM

Cl.Cl.N=C(N)c1ccc(-c2ccc(-c3ccc(C(=N)N)nc3)s2)cn1 [Compound 33, 2,5-Bis-[5-(2-amidino-pyridyl)]thiophene dihydrochloride]
Cures (number of mice that survive and are parasite free for 60 days) ([1]; ip, 5 mg/kg): 1/4 | Survival (average days of survival) ([1]; ip, 5 mg/kg): 42.5 days | Cytotoxocity (L-6 rat mycoblast cells [6]): 4.8 µM | IC50 ([2]; in vitro, read-out: P.f. IC50): 3 nM | IC50 [4, 13]: 4 nM | IC50 ([5]; in vitro, read-out: L.d. C50): 127 nM

N=C(N)c1ccc(-c2ccc(-c3ccc(C(=N)N)cc3)o2)cc1 [Furamidine, reference compound]
Cures (number of mice that survive and are parasite free for 60 days) ([1]; ip, 10 mg/kg): 0/4 | Survival (average days of survival) ([1]; ip, 10 mg/kg): 44.5 days | Cytotoxocity (L-6 rat mycoblast cells [3]): 6.4 µM | IC50 [4, 13]: 4.3 nM | IC50 ([5]; in vitro, read-out: L.d. C50): 2700 nM

N=C(N)c1ccc(OCCCCCOc2ccc(C(=N)N)cc2)cc1 [Pentamidine, reference compound]
responders at 20 mg/kg ([1]; ip): 0% | Survival (average days of survival) ([1]; ip, 20 mg/kg): 42.75 days | IC50 [5, 12]: 2000 nM
